Test results published in patent US20150239831A1, “INHIBITORS OF CENTRAL NERVOUS SYSTEM VASOACTIVE INHIBITORY PEPTIDE RECEPTOR 2” (The Trustees Of Columbia University In The City Of New York, priority 2012, published 2015).

What was measured:
Type in all cases: cell-based
Set-up in all cases: expressed in transfected cells; host or cells: HEK293 cells transfected with VIPR2 in pCDNA3.1 (as described)
VIPR2 [1] = biological target: T1, VIPR2 (Homo sapiens, UniProt P41587); assay: Inhibition of VIP-induced cAMP elevation (% Activity cAMP)
T1 sequence (P41587 24-438): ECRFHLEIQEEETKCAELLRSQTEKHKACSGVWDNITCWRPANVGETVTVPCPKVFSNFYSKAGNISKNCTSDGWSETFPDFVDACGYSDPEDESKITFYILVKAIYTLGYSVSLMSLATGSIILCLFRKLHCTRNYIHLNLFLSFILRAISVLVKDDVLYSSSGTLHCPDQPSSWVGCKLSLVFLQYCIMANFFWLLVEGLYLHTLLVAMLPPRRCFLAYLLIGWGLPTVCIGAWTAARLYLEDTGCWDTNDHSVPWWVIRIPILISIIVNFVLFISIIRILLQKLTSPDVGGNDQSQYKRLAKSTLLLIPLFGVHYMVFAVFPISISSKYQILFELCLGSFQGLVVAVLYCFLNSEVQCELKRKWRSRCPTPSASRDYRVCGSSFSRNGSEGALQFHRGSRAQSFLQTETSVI
Procedure, shortened: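 HEK293 cells stably transfected with human VIPR2 were incubated with inhibitor and VIP for 30 min, then cAMP was detected by HTRF after at least 1 h at room temperature. The 665/620 nm ratio ×10,000 was calculated.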

VIPR2 [2] = biological target: T1, VIPR2; assay: % Activity: inhibition of VIP-induced cAMP elevation and β-arrestin recruitment (Table 2)
Procedure, shortened: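 cAMP: HEK293 stably expressing hVIPR2, inhibitor plus VIP 30 min, cAMP by HTRF (665/620 nm ratio ×10,000). β-arrestin: HEK293 with β-arrestin2-β-gal-EA, transiently transfected with VIPR2-ProLink; inhibitor 2 h at 37° C, enzyme complementation read by luminescence.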

VIPR2 [3] = biological target: T1, VIPR2; assay: Inhibition of VIP-induced β-arrestin recruitment (% Activity Arrestin)
Procedure, shortened: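 HEK293 cells stably expressing β-arrestin2–β-gal EA, transiently transfected with ProLink-tagged hVIPR2, plated overnight; inhibitor added for 2 h at 37 °C, 5% CO2. Receptor–arrestin complementation read by chemiluminescence after 5 min–1 h at room temperature; inhibition of VIP-induced recruitment reported as % activity.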

| SMILES | inhibition at 0.5 µM (VIPR2 [1]; Batch 3) | inhibition at 1 µM (VIPR2 [1]; Batch 3) | inhibition at 5 µM (VIPR2 [1]; Batch 3) | % Activity (VIPR2 [2]) | inhibition at 0.5 µM (VIPR2 [3]; Batch 3) | inhibition at 1 µM (VIPR2 [3]; Batch 3) | inhibition at 5 µM (VIPR2 [3]; Batch 3) | inhibition at 0.5 µM (VIPR2 [1]; Batch 1) | inhibition at 1 µM (VIPR2 [1]; Batch 1) | inhibition at 5 µM (VIPR2 [1]; Batch 1) | inhibition at 0.5 µM (VIPR2 [3]; Batch 1) | inhibition at 1 µM (VIPR2 [3]; Batch 1) | inhibition at 5 µM (VIPR2 [3]; Batch 1) |
| --- | --- | --- | --- | --- | --- | --- | --- | --- | --- | --- | --- | --- | --- |
| CC(C)C(=O)Nc1ccc(S(=O)(=O)NC[C@@H](O)C[C@@H](Cc2ccccc2)C(=O)N[C@H]2c3ccccc3C[C@H]2O)cc1 [Compound X092] | 1% | 6.9% | 16.7% | 4.6% | 5.3% | 5.1% | -7.5% |  |  |  |  |  |  |
| O=C(Nc1ccc(S(=O)(=O)NC[C@@H](O)C[C@@H](Cc2ccccc2)C(=O)N[C@H]2c3ccccc3C[C@H]2O)cc1)C1CC1 [Compound X093] | -2.4% | 23% | 34.3% | 15.05% | 6.4% | -0.3% | -4.2% |  |  |  |  |  |  |
| O=C(O)c1ccc(S(=O)(=O)NC[C@@H](O)C[C@@H](Cc2ccccc2)C(=O)N[C@H]2c3ccccc3C[C@H]2O)cc1 [Compound X094] | 7.4% | 6.4% | 26% | 13.1% | 6.4% | -1.8% | 0.2% |  |  |  |  |  |  |
| CNC(=O)c1ccc(S(=O)(=O)NC[C@@H](O)C[C@@H](Cc2ccccc2)C(=O)N[C@H]2c3ccccc3C[C@H]2O)cc1 [Compound X095] | 13.8% | 22.1% | 69.5% | 34.25% | 6.3% | -1.6% | -1% |  |  |  |  |  |  |
| CCN(CC)C(=O)c1ccc(S(=O)(=O)NC[C@@H](O)C[C@@H](Cc2ccccc2)C(=O)N[C@H]2c3ccccc3C[C@H]2O)cc1 [Compound X096] | 2.5% | 5.9% | 31.8% | 15.3% | 0.3% | 3.1% | -1.2% |  |  |  |  |  |  |
| O=C(NC1CCCC1)c1ccc(S(=O)(=O)NC[C@@H](O)C[C@@H](Cc2ccccc2)C(=O)N[C@H]2c3ccccc3C[C@H]2O)cc1 [Compound X097] | 15.2% | 19.6% | 31.8% | 15.95% | 3.9% | 0.5% | 0.1% |  |  |  |  |  |  |
| O=C(NCc1ccccc1)c1ccc(S(=O)(=O)NC[C@@H](O)C[C@@H](Cc2ccccc2)C(=O)N[C@H]2c3ccccc3C[C@H]2O)cc1 [Compound X098] | 25% | 32.3% | 90.6% | 41.4% | 4.8% | -2% | -7.7% |  |  |  |  |  |  |
| O=C(N[C@H]1c2ccccc2C[C@H]1O)[C@H](Cc1ccccc1)C[C@H](O)CNS(=O)(=O)c1ccc(C(=O)N2CCOCC2)cc1 [Compound X099] | -1.4% | 0.1% | 25.5% | 10.05% | 4.1% | 1.8% | -5.4% |  |  |  |  |  |  |
| CCCCNC(=O)c1ccc(S(=O)(=O)NC[C@@H](O)C[C@@H](Cc2ccccc2)C(=O)N[C@H]2c3ccccc3C[C@H]2O)cc1 [Compound X100] | -0.4% | 5.9% | 20.6% | 7.55% | -0.4% | 2.9% | -5.5% |  |  |  |  |  |  |
| O=C(N[C@H]1c2ccccc2C[C@H]1O)[C@H](Cc1ccccc1)C[C@H](O)CNS(=O)(=O)c1ccc(C(=O)N2CCCCC2)cc1 [Compound X101] | -6.3% | -7.3% | -1.4% | −6.85% | 0% | -17.3% | -12.3% |  |  |  |  |  |  |
| O=C(NC[C@@H](O)C[C@@H](Cc1ccccc1)C(=O)N[C@H]1c2ccccc2C[C@H]1O)c1c(Cl)cc(Cl)cc1Cl [D] |  |  |  | 21.9% |  |  |  | 17.6% | 14.8% | 12.3% | 23.9% | 25.3% | 31.5% |
| O=C(NC[C@@H](O)C[C@@H](Cc1ccccc1)C(=O)N[C@H]1c2ccccc2C[C@H]1O)c1ccccc1[N+](=O)[O-] [G] |  |  |  | 17.6% |  |  |  | 17.6% | 14.3% | 9.1% | 36.4% | 35.1% | 26.1% |
| COc1cc(C(=O)NC[C@@H](O)C[C@@H](Cc2ccccc2)C(=O)N[C@H]2c3ccccc3C[C@H]2O)cc(OC)c1OC [H] |  |  |  | 13.65% |  |  |  | 15.6% | 20% | 9.3% | 29.6% | 37.2% | 18% |
| CC(C)c1cc(C(C)C)c(S(=O)(=O)NC[C@@H](O)C[C@@H](Cc2ccccc2)C(=O)N[C@H]2c3ccccc3C[C@H]2O)c(C(C)C)c1 [J] |  |  |  | 49.15% |  |  |  | 19.5% | 18.6% | 90% | 29.7% | 30.9% | 8.3% |
| O=C(N[C@H]1c2ccccc2C[C@H]1O)[C@H](Cc1ccccc1)C[C@H](O)CNS(=O)(=O)c1cccc([N+](=O)[O-])c1 [L] |  |  |  | 27.35% |  |  |  | 18.4% | 15.2% | 21.3% | 24.2% | 35.1% | 33.4% |
| O=C(NC[C@@H](O)C[C@@H](Cc1ccccc1)C(=O)N[C@H]1c2ccccc2C[C@H]1O)c1cccc([N+](=O)[O-])c1 [M] |  |  |  | 4.75% |  |  |  | 11.8% | 11% | 13.5% | 19.9% | 7.4% | -4% |
| Cc1ccc(S(=O)(=O)NC[C@@H](O)C[C@@H](Cc2ccccc2)C(=O)N[C@H]2c3ccccc3C[C@H]2O)c(C)c1 [N] |  |  |  | 27.55% |  |  |  | 14.1% | 10.9% | 23.3% | 2.8% | 20.3% | 31.8% |
| O=C(NC[C@@H](O)C[C@@H](Cc1ccccc1)C(=O)N[C@H]1c2ccccc2C[C@H]1O)c1cccc(CCl)c1 [O] |  |  |  | 2.4% |  |  |  | 0.5% | 2.3% | 15.1% | -8.1% | 5.7% | -10.3% |
| Cc1ccc([N+](=O)[O-])cc1S(=O)(=O)NC[C@@H](O)C[C@@H](Cc1ccccc1)C(=O)N[C@H]1c2ccccc2C[C@H]1O [P] |  |  |  | 8.85% |  |  |  | 10.9% | 13.6% | 18.3% | -12% | -3.8% | -0.6% |
| O=C(NC[C@@H](O)C[C@@H](Cc1ccccc1)C(=O)N[C@H]1c2ccccc2C[C@H]1O)c1cccc(Br)c1 [Q] |  |  |  | 12.75% |  |  |  | 17.4% | 18.5% | 20.3% | -3.8% | 6.8% | 5.2% |
| O=C(N[C@H]1c2ccccc2C[C@H]1O)[C@H](Cc1ccccc1)C[C@H](O)CNS(=O)(=O)c1ccccc1C(F)(F)F [R] |  |  |  | 22.85% |  |  |  | 23% | 18.8% | 24.7% | 10.7% | 24.8% | 21% |
| COc1ccc(S(=O)(=O)NC[C@@H](O)C[C@@H](Cc2ccccc2)C(=O)N[C@H]2c3ccccc3C[C@H]2O)cc1OC [S] |  |  |  | 30.1% |  |  |  | 21.1% | 20.4% | 28.2% | 10.5% | 23.2% | 32% |
| O=C(N[C@H]1c2ccccc2C[C@H]1O)[C@H](Cc1ccccc1)C[C@H](O)CNS(=O)(=O)c1ccccc1F [T] |  |  |  | 40.15% |  |  |  | 28.6% | 22.3% | 28.3% | 5.3% | 28.3% | 52% |
